Measured values published in patent publication US9963506B2, “Human-mouse chimeric anti-CD147 antibody with non-fucosylated glycosylation” (Fourth Military Medical University, priority 2015, dated 2018).

Columns and labels:
Format in all cases: cell-based, human
[1] = system: A549 cells; test: Transwell invasion assay; conditions: 24 hours
Procedure: (§1) For invasion assay, NCI-H520 or A549 cells were serum-starved for 12 hours in DMEM containing 0.1% FBS. Serum-starved cells were trypsinized and re-suspended in DMEM containing 0.1% FBS and Metuzumab solution at 0.1 μg/ml, 1 μg/ml and 10 μg/ml, respectively. 5×10^4 cells were added to the upper chamber of each well (6.5 mm in diameter, 8-μm pore size; Corning, N.Y.) coated with […] Matrigel (BD Bioscience). Medium containing 10% FBS was placed in the lower compartment of the chamber. After 24 hours at 37° C., cells on the upper membrane surface were removed by careful wiping with a cotton swab, and the filters were fixed by treatment with 95% ethanol for 30 minutes and stained with 0.2% crystal violet solution for 30 minutes. Invasive cells adhering to the undersurface of the filter were then counted (five high-power fields/chamber) using a CX71 microscope (Olympus).

[2] = system: NCI-H520 cells; test: Transwell invasion assay; conditions: 24 hours
Procedure: as §1

[3] = system: A549 cells; test: Wound healing (migration) assay
Procedure: (§2) Wound healing and transwell invasion assays were performed. For wound healing assay, 2×10^4 cells were plated in 24-well plate to form cell monolayer and allowed to reach confluence for 2 days. A wound was made in the monolayer (at time 0) by a 200 μl tip. After wash of the monolayer, Metuzumab solution was dispensed at 0.1 μg/ml, 1 μg/ml and 10 μg/ml, respectively, at 200 μl/well into each well. Saline was used as control. The distance between two sides of an open wound was measured under a CX71 microscope (Olympus). The distance between the two sides of the wound after 20-72 h of migration was divided by the distance at time 0 and represented on a graph. The experiments were performed in triplicates, the results were shown as mean±SD.

[4] = system: NCI-H520 cells; test: Wound healing (migration) assay
Procedure: as §2

“Metuzumab: human-mouse chimeric anti-CD147 IgG1, heavy chain SEQ ID NO: 4, light chain SEQ ID NO: 3, Mannose-5 glycoform lacking fucose and xylose” was tested, and the “invasiveness repressed compared to control groups” value ([1]; A549, 0.1 μg/ml) was 53.5%, the “invasiveness repressed compared to control groups” value ([1]; A549, 1 μg/ml) was 61.5% and the “invasiveness repressed compared to control groups” value ([1]; A549, 10 μg/ml) was 74.6%. For the same substance, the “invasiveness repressed compared to control groups” value ([2]; NCI-H520, 0.1 μg/ml) was 30.0%, the “invasiveness repressed compared to control groups” value ([2]; NCI-H520, 1 μg/ml) was 48.0% and the “invasiveness repressed compared to control groups” value ([2]; NCI-H520, 10 μg/ml) was 66.2%. For the same substance, the “migration activity repressed compared to control group” value ([3]; A549, 0.1 μg/ml) was 24.4%, the migration rate ([3]; A549, 0.1 μg/ml (control 20.1 μm/hr)) was 15.2 μm/hr and the “migration activity repressed compared to control group” value ([3]; A549, 1 μg/ml) was 38.3%. The migration rate ([3]; A549, 1 μg/ml (control 20.1 μm/hr)) was 12.4 μm/hr, the “migration activity repressed compared to control group” value ([3]; A549, 10 μg/ml) was 50% and the migration rate ([3]; A549, 10 μg/ml (control 20.1 μm/hr)) was 10.1 μm/hr. For the same substance, the “migration activity decrease compared to control group” value (“migration activity decrease” for short) ([4]; NCI-H520, 0.1 μg/ml) was 20.2%, the migration rate ([4]; NCI-H520, 0.1 μg/ml (saline 18.8 μm/hr)) was 15.0 μm/hr and the “migration activity decrease” value ([4]; NCI-H520, 1 μg/ml) was 34.0%. For the same substance, the migration rate ([4]; NCI-H520, 1 μg/ml (saline 18.8 μm/hr)) was 12.4 μm/hr, the “migration activity decrease” value ([4]; NCI-H520, 10 μg/ml) was 44.1% and the migration rate ([4]; NCI-H520, 10 μg/ml (saline 18.8 μm/hr)) was 10.5 μm/hr.
